Laboratory results: article PMC7560867, “Unique dynamic mode between Artepillin C and human serum albumin implies the characteristics of Brazilian green propolis representative bioactive component” (Scientific Reports, 2020)

Biological target: T1, Human serum albumin (HSA) (Homo sapiens, UniProt P02768)
T1 construct: gene ALB
Experiment: intrinsic fluorescence quenching, excitation […] nm, emission […] nm
Assay type: binding
Conditions: 295 K, PBS pH 7.4, 0.5 uM HSA, no warfarin; double-log; n 0.8430; quenching described as dynamic; Sudlow's site I (IIA)

T1 sequence (P02768 25-609): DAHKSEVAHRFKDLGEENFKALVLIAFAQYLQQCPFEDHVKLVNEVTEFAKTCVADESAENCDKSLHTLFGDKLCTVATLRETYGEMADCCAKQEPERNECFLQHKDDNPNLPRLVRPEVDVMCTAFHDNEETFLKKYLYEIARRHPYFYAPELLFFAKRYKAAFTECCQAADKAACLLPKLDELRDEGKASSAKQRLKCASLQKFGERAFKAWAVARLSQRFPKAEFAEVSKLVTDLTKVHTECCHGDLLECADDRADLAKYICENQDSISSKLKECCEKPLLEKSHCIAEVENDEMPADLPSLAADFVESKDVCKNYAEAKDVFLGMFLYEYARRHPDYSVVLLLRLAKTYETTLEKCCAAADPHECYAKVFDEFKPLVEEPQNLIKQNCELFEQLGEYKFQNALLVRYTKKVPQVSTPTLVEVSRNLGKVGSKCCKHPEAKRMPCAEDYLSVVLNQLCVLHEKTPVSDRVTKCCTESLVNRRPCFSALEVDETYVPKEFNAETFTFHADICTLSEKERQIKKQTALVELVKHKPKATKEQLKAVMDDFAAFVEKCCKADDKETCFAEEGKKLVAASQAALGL

In the case of `CC(C)=CCc1cc(/C=C/C(=O)O)cc(CC=C(C)C)c1O` [Artepillin C, 3,5-diprenyl-4-hydroxycinnamic acid], the “KA” value is reported as 908000 L/mol.
